Test results as given in US6914045B2, “Glycopeptide antibiotics” (Wyeth Holdings Corporation, priority 2001, dated 2005).

Key:
[1] = system: Streptococcus pneumoniae (GC 1894); experiment: acute lethal infection in mice; type: in vivo; conditions: female CD-1 mice, intraperitoneal challenge, intravenous 30 min. after infection, 7 day survival
Outline: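 Intraperitoneal challenge of female CD-1 mice with a bacterial dose lethal to untreated animals within 24-48 hr; single iv treatment 30 min later, 5 mice per dose level. Survival is scored at day 7 and pooled from three experiments to give the median effective dose.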

Enterococcus sp. = experiment: in vitro antibacterial evaluation, MIC by broth dilution; type: cell-based; conditions: broth dilution, 18 hours at 35° C.
Outline: (§1)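 MIC = lowest antibiotic concentration preventing visible growth; inoculum 5×10^5 CFU/mL; drug range 64-0.06 μg/mL; Muller-Hinton II […]; NCCLS M7-A2 guidance.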

Staphylococcus sp. = experiment: as above; type: cell-based; conditions: broth dilution, 18 hours at 35° C.
Outline: as §1

Streptococcus sp. = experiment: as above; type: cell-based; conditions: broth dilution, 18 hours at 35° C.
Outline: as §1

Escherichia coli = experiment: as above; type: cell-based; conditions: 18 hours at 35° C.
Outline: as §1

CC(c1ccccc1)C1NC(=O)CNC(=O)C(CO)NC(=O)C(C(O)C2CNC(=N)N2C2OC(CO)C(O)C(O)C2O)NC(=O)C(C(O)C2CNC(=N)N2)NC(=O)C(Cc2ccc(OC3OC(CO)C(OC4OC5COC(C6CCCCC6)OC5C(O)C4O)C(O)C3O)cc2)NC1=O (stereo not drawn) [Example 112, Cyclo[glycyl-β-methylphenylalanyl-O-[4-O-[4,6-O-(cyclohexylmethylene)hexopyranosyl]-hexopyranosyl]tyrosyl-3-(2-iminoimidazolidin-4-yl)seryl-3-(3-hexopyranosyl-2-iminoimidazolidin-4-yl)serylseryl]]
<0.12 µg/mL: MIC Streptococcus agalactiae (GC 4564) (Streptococcus sp.; Streptococcus agalactiae (GC 4564)) | MIC Streptococcus pneumoniae (GC 4565) (Streptococcus sp.; Streptococcus pneumoniae (GC 4565)) | MIC Streptococcus pyogenes (GC 4563) (Streptococcus sp.; Streptococcus pyogenes (GC 4563)) | MIC Streptococcus pyogenes (GC 4563) (Streptococcus sp.; strain GC 4563) | MIC Streptococcus agalactiae (GC 4564) (Streptococcus sp.; strain GC 4564) | MIC Streptococcus pneumoniae (GC 4565) (Streptococcus sp.; strain GC 4565)
32 µg/mL: MIC Escherichia coli (ATCC 25922) (Escherichia coli; strain ATCC 25922)
2 µg/mL: MIC Enterococcus avium (GC 4558) (Enterococcus sp.; Enterococcus avium (GC 4558)) | MIC Enterococcus faecalis (ATCC 29212) (Enterococcus sp.; Enterococcus faecalis (ATCC 29212)) | MIC Enterococcus faecalis (GC 2691) (Enterococcus sp.; Enterococcus faecalis (GC 2691)) | MIC Enterococcus faecalis (GC 3059) (Enterococcus sp.; Enterococcus faecalis (GC 3059)) | MIC Enterococcus faecalis (GC 4552) (Enterococcus sp.; Enterococcus faecalis (GC 4552)) | MIC Enterococcus faecalis (GC 4554) (Enterococcus sp.; Enterococcus faecalis (GC 4554)) | MIC Enterococcus faecalis (GC 6189) (Enterococcus sp.; Enterococcus faecalis (GC 6189)) | MIC Enterococcus faecium (GC 4556) (Enterococcus sp.; Enterococcus faecium (GC 4556)) | MIC Enterococcus faecalis (ATCC 29212) (Enterococcus sp.; strain ATCC 29212) | MIC Enterococcus faecalis (GC 2691) (Enterococcus sp.; strain GC 2691) | MIC Enterococcus faecalis (GC 3059) (Enterococcus sp.; strain GC 3059) | MIC Enterococcus faecalis (GC 4552) (Enterococcus sp.; strain GC 4552) | MIC Enterococcus faecalis (GC 4554) (Enterococcus sp.; strain GC 4554) | MIC Enterococcus faecium (GC 4556) (Enterococcus sp.; strain GC 4556) | MIC Enterococcus avium (GC 4558) (Enterococcus sp.; strain GC 4558) | MIC Enterococcus faecalis (GC 6189) (Enterococcus sp.; strain GC 6189)
0.5 to 2 µg/mL: MIC Enterococcus faecium (GC 4557) (Enterococcus sp.; Enterococcus faecium (GC 4557)) | MIC Enterococcus faecium (GC 4557) (Enterococcus sp.; strain GC 4557) | MIC Staphylococcus aureus (GC 4544) (Staphylococcus sp.) | MIC Staphylococcus aureus (GC 4544) (Staphylococcus sp.; strain GC 4544)
>16 µg/mL: MIC Escherichia coli (GC 4559) (Escherichia coli; strain GC 4559)
0.5 to 1 µg/mL: MIC Coagulase Negative Staphylococcus (GC 4547) (Staphylococcus sp.) | MIC Coagulase Negative Staphylococcus (GC 4548) (Staphylococcus sp.) | MIC Coagulase Negative Staphylococcus (GC 4549) (Staphylococcus sp.) | MIC Coagulase Negative Staphylococcus (GC 4551) (Staphylococcus sp.) | MIC Staphylococcus aureus (GC 1131) (Staphylococcus sp.) | MIC Staphylococcus aureus-SMITH (GC 4543) (Staphylococcus sp.) | MIC Staphylococcus aureus (GC 1131) (Staphylococcus sp.; inoculum 5×10^5 CFU/mL, strain GC 1131) | MIC Coagulase Negative Staphylococcus (GC 4547) (Staphylococcus sp.; strain GC 4547) | MIC Coagulase Negative Staphylococcus (GC 4548) (Staphylococcus sp.; strain GC 4548) | MIC Coagulase Negative Staphylococcus (GC 4549) (Staphylococcus sp.; strain GC 4549) | MIC Coagulase Negative Staphylococcus (GC 4551) (Staphylococcus sp.; strain GC 4551) | MIC Staphylococcus aureus-SMITH (GC 4543) (Staphylococcus sp.; strain SMITH GC 4543)
1 µg/mL: MIC Coagulase Negative Staphylococcus (GC 6257) (Staphylococcus sp.) | MIC Staphylococcus aureus (ATCC 29213) (Staphylococcus sp.) | MIC Staphylococcus aureus (GC 4541) (Staphylococcus sp.) | MIC Staphylococcus aureus (GC 4542) (Staphylococcus sp.) | MIC Staphylococcus haemolyticus (GC 4546) (Staphylococcus sp.) | MIC Staphylococcus aureus (ATCC 29213) (Staphylococcus sp.; strain ATCC 29213) | MIC Staphylococcus aureus (GC 4541) (Staphylococcus sp.; strain GC 4541) | MIC Staphylococcus aureus (GC 4542) (Staphylococcus sp.; strain GC 4542) | MIC Staphylococcus haemolyticus (GC 4546) (Staphylococcus sp.; strain GC 4546) | MIC Coagulase Negative Staphylococcus (GC 6257) (Staphylococcus sp.; strain GC 6257) | MIC Escherichia coli (GC 4560) (Escherichia coli; strain GC 4560)
2 to 4 µg/mL: MIC Enterococcus faecalis (GC 4553) (Enterococcus sp.; Enterococcus faecalis (GC 4553)) | MIC Enterococcus faecalis (GC 4553) (Enterococcus sp.; strain GC 4553)
1 to 2 µg/mL: MIC Enterococcus faecalis (GC 2242) (Enterococcus sp.; Enterococcus faecalis (GC 2242)) | MIC Enterococcus faecium (GC 2243) (Enterococcus sp.; Enterococcus faecium (GC 2243)) | MIC Enterococcus faecalis (GC 2242) (Enterococcus sp.; strain GC 2242) | MIC Enterococcus faecium (GC 2243) (Enterococcus sp.; strain GC 2243) | MIC Staphylococcus aureus (GC 4545) (Staphylococcus sp.) | MIC Staphylococcus aureus (GC 4545) (Staphylococcus sp.; strain GC 4545)
0.02 mg/kg: median effective dose (ED50), Streptococcus pneumoniae (GC 1894) [1]
0.5 µg/mL: MIC Coagulase Negative Staphylococcus (ID-3941) (Staphylococcus sp.) | MIC Coagulase Negative Staphylococcus (ID-3941) (Staphylococcus sp.; strain ID-3941) | MIC Streptococcus pyogenes (ID-3187) (Streptococcus sp.; Streptococcus pyogenes (ID-3187)) | MIC Streptococcus pyogenes (ID-3187) (Streptococcus sp.; strain ID-3187)
